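Values below derive from 48-hour exposures of cells grown in 96-well plates, with endpoints linearly interpolated between the two concentrations bracketing the appropriate inhibition level. GI50: concentration for 50% inhibition of growth.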 Calls of active or inactive are those of the source. Rule as the data show it: active = GI50 up to about 1.1 µM and inactive = higher.
Key:
Test in all cases: DTP human tumour cell line panel, 48 h
[1] = test system: NCI/ADR-RES
[2] = test system: MCF7
[3] = test system: PC-3
[4] = test system: SF-539
[5] = test system: ACHN
[6] = test system: LOX IMVI
[7] = test system: RXF 393
[8] = test system: HCT-15
[9] = test system: CCRF-CEM
[10] = test system: SK-MEL-5
[11] = test system: MDA-MB-231
[12] = test system: A498
[13] = test system: UACC-62
[14] = test system: HCT-116
[15] = test system: BT-549
[16] = test system: UACC-257
[17] = test system: CAKI-1
[18] = test system: OVCAR-8
[19] = test system: MDA-MB-435
[20] = test system: K562

SMILES: O=C(c1cc2c(c3ccccc13)NC1(CCCCC1)N=C2C(F)(F)F)C(F)(F)F
- GI50 [1]: 4.53 µM (inactive)
- GI50 [2]: 3.63 µM (inactive)
- GI50 [3]: 3.68 µM (inactive)
- GI50 [4]: 2.53 µM (inactive)
- GI50 [5]: 3.63 µM (inactive)
- GI50 [6]: 3.33 µM (inactive)
- GI50 [7]: 3.66 µM (inactive)
- GI50 [8]: 5.07 µM
- GI50 [9]: 3.39 µM (inactive)
- GI50 [10]: 5.74 µM (inactive)
- GI50 [11]: 3.14 µM (inactive)
- GI50 [12]: 7.83 µM (inactive)
- GI50 [13]: 3.78 µM (inactive)
- GI50 [14]: 3.3 µM (inactive)
- GI50 [15]: 4.37 µM (inactive)
- GI50 [16]: 3.17 µM (inactive)
- GI50 [17]: 3.35 µM (inactive)
- GI50 [18]: 4.23 µM (inactive)
- GI50 [19]: 3.23 µM (inactive)
- GI50 [20]: 4.3 µM (inactive)

SMILES: CCOP(=O)(O)C(Nc1ccc(/N=N/c2ccccc2)cc1)c1cccc(C(Nc2ccc(/N=N/c3ccccc3)cc2)P(=O)(O)OCC)c1 (stereo not given)
- GI50 [1]: 76.9 µM (inactive)
- GI50 [2]: 35.2 µM (inactive)
- GI50 [3]: 23.9 µM (inactive)
- GI50 [4]: 33.9 µM (inactive)
- GI50 [5]: 45.9 µM (inactive)
- GI50 [6]: 19.9 µM (inactive)
- GI50 [7]: 75.5 µM (inactive)
- GI50 [8]: 24.8 µM
- GI50 [9]: 15.5 µM (inactive)
- GI50 [10]: 45.1 µM (inactive)
- GI50 [11]: 58.6 µM (inactive)
- GI50 [12]: 23 µM (inactive)
- GI50 [13]: 29.4 µM (inactive)
- GI50 [14]: 56.6 µM (inactive)
- GI50 [15]: 45.2 µM (inactive)
- GI50 [16]: 57 µM (inactive)
- GI50 [17]: 66.1 µM (inactive)
- GI50 [18]: 55 µM (inactive)
- GI50 [19]: 58.7 µM (inactive)
- GI50 [20]: 19 µM (inactive)

SMILES: COc1c(OC)c(OC)c2c(=O)cc(-c3ccc(OC(C)C)cc3)oc2c1OC
- GI50 [1]: 17.5 µM (inactive)
- GI50 [2]: 18.3 µM (inactive)
- GI50 [3]: 18.8 µM (inactive)
- GI50 [4]: 19.7 µM (inactive)
- GI50 [5]: 34.2 µM (inactive)
- GI50 [6]: 27.5 µM (inactive)
- GI50 [7]: > 33.5 µM (inactive)
- GI50 [8]: 19.4 µM
- GI50 [9]: 6.37 µM (inactive)
- GI50 [10]: 8.97 µM (inactive)
- GI50 [11]: 29.3 µM (inactive)
- GI50 [12]: 8.3 µM (inactive)
- GI50 [13]: 15.8 µM (inactive)
- GI50 [14]: 10.8 µM (inactive)
- GI50 [15]: 16.7 µM (inactive)
- GI50 [16]: 25.6 µM (inactive)
- GI50 [17]: 20.5 µM (inactive)
- GI50 [18]: 14.7 µM (inactive)
- GI50 [19]: 26 µM (inactive)
- GI50 [20]: 5.25 µM (inactive)

SMILES: [O-]c1c2cc(-[n+]3c(-c4ccccc4)cc(-c4ccccc4)cc3-c3ccccc3)cc1CO[C@@H](c1ccccc1)[C@H](c1ccccc1)OCCOCCO[C@@H](c1ccccc1)[C@H](c1ccccc1)OC2
- GI50 [1]: 1.14 µM (inactive)
- GI50 [2]: 0.0382 µM (active)
- GI50 [3]: 0.039 µM (active)
- GI50 [4]: 0.408 µM (active)
- GI50 [5]: 0.167 µM (active)
- GI50 [6]: 0.0577 µM (active)
- GI50 [7]: 0.108 µM (active)
- GI50 [8]: 0.319 µM
- GI50 [9]: 0.048 µM (active)
- GI50 [10]: 0.03 µM (active)
- GI50 [11]: 0.104 µM (active)
- GI50 [12]: 0.5 µM (active)
- GI50 [13]: 0.0577 µM (active)
- GI50 [14]: 0.0362 µM (active)
- GI50 [15]: 0.0356 µM (active)
- GI50 [16]: 0.106 µM (active)
- GI50 [17]: 0.335 µM (active)
- GI50 [18]: 0.0351 µM (active)
- GI50 [19]: 0.049 µM (active)
- GI50 [20]: 0.0284 µM (active)

SMILES: c1ccc(CN2CCCN3CCN(CCCN(Cc4ccccc4)CC3)CC2)cc1
- GI50 [1]: > 100 µM (inactive)
- GI50 [2]: 38.3 µM (inactive)
- GI50 [3]: 30.5 µM (inactive)
- GI50 [4]: 87.7 µM (inactive)
- GI50 [5]: > 100 µM (inactive)
- GI50 [6]: 51.9 µM (inactive)
- GI50 [7]: > 100 µM (inactive)
- GI50 [8]: > 100 µM
- GI50 [9]: 46.9 µM (inactive)
- GI50 [10]: 19.3 µM (inactive)
- GI50 [11]: 38.2 µM (inactive)
- GI50 [12]: 58.5 µM (inactive)
- GI50 [13]: 35.1 µM (inactive)
- GI50 [14]: 35.2 µM (inactive)
- GI50 [15]: 44.5 µM (inactive)
- GI50 [16]: 22 µM (inactive)
- GI50 [17]: > 100 µM (inactive)
- GI50 [18]: 50.9 µM (inactive)
- GI50 [19]: 32.7 µM (inactive)
- GI50 [20]: 32 µM (inactive)

SMILES: O=C1C=CC(=O)N1c1ccc2c(c1)Cc1cc(NC(=O)C(F)(F)F)ccc1-2
- GI50 [1]: 27.7 µM (inactive)
- GI50 [2]: 15.1 µM (inactive)
- GI50 [3]: 17.1 µM (inactive)
- GI50 [4]: 18 µM (inactive)
- GI50 [5]: 4.43 µM (inactive)
- GI50 [6]: 18 µM (inactive)
- GI50 [7]: 5.66 µM (inactive)
- GI50 [8]: 10.6 µM
- GI50 [9]: 3.96 µM (inactive)
- GI50 [10]: 47 µM (inactive)
- GI50 [11]: 16.4 µM (inactive)
- GI50 [12]: 20 µM (inactive)
- GI50 [13]: 16.8 µM (inactive)
- GI50 [14]: 7.36 µM (inactive)
- GI50 [15]: 16.6 µM (inactive)
- GI50 [16]: 18 µM (inactive)
- GI50 [17]: 16 µM (inactive)
- GI50 [18]: 17.7 µM (inactive)
- GI50 [19]: 17.4 µM (inactive)
- GI50 [20]: 9.25 µM (inactive)

SMILES: N#Cc1c(N2CCCC2)nsc1NCc1ccccc1
- GI50 [1]: > 100 µM (inactive)
- GI50 [2]: > 100 µM (inactive)
- GI50 [3]: > 100 µM (inactive)
- GI50 [4]: > 100 µM (inactive)
- GI50 [5]: 91 µM (inactive)
- GI50 [6]: > 100 µM (inactive)
- GI50 [7]: 15 µM (inactive)
- GI50 [8]: > 100 µM
- GI50 [9]: > 100 µM (inactive)
- GI50 [10]: > 100 µM (inactive)
- GI50 [11]: > 100 µM (inactive)
- GI50 [12]: > 100 µM (inactive)
- GI50 [13]: 75.2 µM (inactive)
- GI50 [14]: > 100 µM (inactive)
- GI50 [15]: > 100 µM (inactive)
- GI50 [16]: > 100 µM (inactive)
- GI50 [17]: > 100 µM (inactive)
- GI50 [18]: > 100 µM (inactive)
- GI50 [19]: > 100 µM (inactive)
- GI50 [20]: > 100 µM (inactive)

SMILES: CN(/N=C/c1ccccn1)C1=NCCCN1
- GI50 [1]: > 100 µM (inactive)
- GI50 [2]: > 100 µM (inactive)
- GI50 [3]: > 100 µM (inactive)
- GI50 [4]: > 100 µM (inactive)
- GI50 [5]: > 100 µM (inactive)
- GI50 [6]: > 100 µM (inactive)
- GI50 [7]: > 100 µM (inactive)
- GI50 [8]: > 100 µM
- GI50 [9]: > 100 µM (inactive)
- GI50 [10]: > 100 µM (inactive)
- GI50 [11]: > 100 µM (inactive)
- GI50 [12]: 91.6 µM (inactive)
- GI50 [13]: > 100 µM (inactive)
- GI50 [14]: > 100 µM (inactive)
- GI50 [15]: > 100 µM (inactive)
- GI50 [16]: > 100 µM (inactive)
- GI50 [17]: > 100 µM (inactive)
- GI50 [18]: > 100 µM (inactive)
- GI50 [19]: > 100 µM (inactive)
- GI50 [20]: > 100 µM (inactive)

SMILES: N#Cc1cc(-c2nc3ccc(F)cc3s2)ccc1N
- GI50 [1]: > 100 µM (inactive)
- GI50 [2]: 18 µM (inactive)
- GI50 [3]: > 100 µM (inactive)
- GI50 [4]: 51.1 µM (inactive)
- GI50 [5]: > 100 µM (inactive)
- GI50 [6]: 74.8 µM (inactive)
- GI50 [7]: > 100 µM (inactive)
- GI50 [8]: 87.7 µM
- GI50 [9]: > 100 µM (inactive)
- GI50 [10]: > 100 µM (inactive)
- GI50 [11]: > 100 µM (inactive)
- GI50 [12]: > 100 µM (inactive)
- GI50 [13]: > 100 µM (inactive)
- GI50 [14]: 33.5 µM (inactive)
- GI50 [15]: > 100 µM (inactive)
- GI50 [16]: > 100 µM (inactive)
- GI50 [17]: > 100 µM (inactive)
- GI50 [18]: > 100 µM (inactive)
- GI50 [19]: 17.7 µM (inactive)
- GI50 [20]: 80.4 µM (inactive)

Source: ChEMBL document CHEMBL1201862, “PubChem BioAssay data set” (2004)
